Results published in US10174029B2, “Pyrimidine-2,4-diamine derivatives for treatment of cancer” (THOMAS HELLEDAYS STIFTELSE FOR MEDICINSK FORSKNING, priority 2012, dated 2019).
Structures can show the parent of a compound that is named as a salt.

Each compound was assayed against MTH1 (Homo sapiens, UniProt P36639) (assay: MTH1 enzymatic assay and IC50 value determination (malachite green)). Conditions: MTH1 4.8 nM, dGTP 100 μM, 15 minutes at 22° C.; group: between 2 μM and 10 μM.
Type: biochemical
Procedure: MTH1 Enzymatic Assay and IC50 Value Determination
MTH1 catalyzes the hydrolysis of dGTP to dGMP and PPi. By coupling the reaction to pyrophosphatase added in excess PPi is converted to Pi that can be detected by using the malachite green assay reagent. Briefly, for IC50 value determination the compound to be analyzed is diluted in assay buffer in a 1:3 dilution series generating 12 different compound concentrations giving a final DMSO concentration of 1% in the assay well. MTH1 diluted in assay buffer (100 mM Tris-acetate, 40 mM NaCl, 10 mM magnesium acetate, 1 mM DTT and 0.005% Tween 20) fortified with E. coli pyrophosphatase (0.8 U/ml) is added to a final concentration of 4.8 nM. dGTP diluted in assay buffer is added to a final concentration of 100 μM. The reaction mixture is incubated with shaking for 15 minutes at 22° C. To 100 μl reaction mixture is 25 μl Malachite green assay regent (0.095% Malachite green in 17% H2SO4, 1.5% Ammonium molybdate, 0.17% Tween 20) added followed by incubation with shaking for 15 minutes at 22° C.
The absorbance of the assay plate is read at 630 nm using an EnVision Multilabel plate reader. The IC50 value is determined by fitting a dose response curve to the data points using nonlinear regression analysis and the equation Y=Bottom+(Top−Bottom)/(1+10^((Log IC50−X)*HillSlope)), where Y is the read absorbance at 630 nm and X is log [compound].

| IC50 [nM] | SMILES |
| --- | --- |
| 2000 to 10000 | Nc1nc(NC2CCOCC2)cc(-c2cccc(Cl)c2)n1 [Example 21, 6-(3-chlorophenyl)-4-N-(oxan-4-yl)pyrimidine-2,4-diamine] |
| 2000 to 10000 | Cc1cccc(-c2cc(N[C@H](C)C3CC3)nc(N)n2)c1C [Example 166, 4-N-[(1R)-1-cyclopropylethyl]-6-(2,3-dimethylphenyl)pyrimidine-2,4-diamine] |
| 2000 to 10000 | Cc1ccc(S(=O)(=O)N2CCOCC2)cc1-c1cc(NCCCN2CCCC2=O)nc(N)n1 [Example 289, 1-[3-({2-amino-6-[2-methyl-5-(morpholine-4-sulfonyl)phenyl]pyrimidin-4-yl}amino)propyl]pyrrolidin-2-one] |
| 2000 to 10000 | Cc1cccc(-c2cc(NCCC(=O)N3CCOCC3)nc(N)n2)c1C [Example 277, 3-{[2-amino-6-(2,3-dimethylphenyl)pyrimidin-4-yl]amino}-1-(morpholin-4-yl)propan-1-one] |
| 2000 to 10000 | C[C@@H](Nc1cc(-c2cccc(Cl)c2Cl)nc(N)n1)C1CC1 [Example 179, 4-N-[(1R)-1-cyclopropylethyl]-6-(2,3-dichlorophenyl)pyrimidine-2,4-diamine] |
| 2000 to 10000 | Nc1nc(NC2CCOCC2)cc(-c2ccc(Cl)cc2)n1 [Example 15, 6-(4-chlorophenyl)-4-N-(oxan-4-yl)pyrimidine-2,4-diamine] |
| 2000 to 10000 | CNc1cc(-c2ccccn2)nc(N)n1 [Example 78, 4-N-methyl-6-(pyridin-2-yl)pyrimidine-2,4-diamine] |

Same assay, conditions: MTH1 4.8 nM, dGTP 100 μM, 15 minutes at 22° C.; group: less than 200 nM

| IC50 [nM] | SMILES |
| --- | --- |
| < 200 | CNc1cc(-c2cccc(NC(=O)C(O)c3ccc(Cl)cc3)c2)nc(N)n1 (centres unmarked) [Example 323, N-{3-[2-Amino-6-(methylamino)pyrimidin-4-yl]phenyl}-2-(4-chlorophenyl)-2-hydroxyacetamide] |
| < 200 | CNc1cc(-c2cccc(NC(=O)/C=C/CN(C)C)c2)nc(N)n1 [Example 312, (2E)-N-{3-[2-Amino-6-(methylamino)pyrimidin-4-yl]phenyl}-4-(dimethylamino)but-2-enamide] |
| < 200 | CNc1cc(-c2ccc(O)nc2)nc(N)n1 [Example 141, 5-[2-amino-6-(methylamino)pyrimidin-4-yl]pyridin-2-ol] |
| < 200 | Cc1ncsc1CCNc1cc(-c2cccc(Cl)c2Cl)nc(N)n1 [Example 405, 6-(2,3-dichlorophenyl)-4-N-[2-(4-methyl-1,3-thiazol-5-yl)ethyl]pyrimidine-2,4-diamine] |
| < 200 | CNc1cc(-c2cn(S(=O)(=O)c3ccc(Cl)cc3)c3ccccc23)nc(N)n1 [Example 144, 6-[1-(4-chlorobenzenesulfonyl)-1H-indol-3-yl]-4-N-methylpyrimidine-2,4-diamine] |
| < 200 | COc1ccc(-c2cc(NC3CCCC3)nc(N)n2)cc1 [Example 56, 4-N-cyclopentyl-6-(4-methoxyphenyl)pyrimidine-2,4-diamine] |
| < 200 | Cc1cccc(-c2cc(NCc3cnc(-c4ccccc4)s3)nc(N)n2)c1C [Example 411, 6-(2,3-dimethylphenyl)-4-N-[(2-phenyl-1,3-thiazol-5-yl)methyl]pyrimidine-2,4-diamine] |
| < 200 | Cc1cccc(-c2cc(NCCNc3ccc(S(N)(=O)=O)cn3)nc(N)n2)c1C [Example 443, 6-[(2-{[2-amino-6-(2,3-dimethylphenyl)pyrimidin-4-yl]amino}ethyl)amino]pyridine-3-sulfonamide] |
| < 200 | CNc1cc(-c2ccc(CN)cc2)nc(N)n1 [Example 329, 6-[4-(Aminomethyl)phenyl]-4-N-methylpyrimidine-2,4-diamine] |
| < 200 | CNc1cc(-c2cccc(Cl)c2F)nc(N)n1 [Example 87, 6-(3-chloro-2-fluorophenyl)-4-N-methylpyrimidine-2,4-diamine] |
| < 200 | C=CC(=O)Nc1ccc(-c2cc(NC)nc(N)n2)cc1 [Example 317, N-{4-[2-Amino-6-(methylamino)pyrimidin-4-yl]phenyl}prop-2-enamide] |
| < 200 | Cc1cc(Cl)ccc1-c1cc(NCCc2ccc(S(N)(=O)=O)cc2)nc(N)n1 [Example 432, 4-(2-{[2-amino-6-(4-chloro-2-methylphenyl)pyrimidin-4-yl]amino}ethyl)benzene-1-sulfonamide] |
| < 200 | CS(=O)(=O)c1ccc(CCNc2cc(-c3cccc(Cl)c3Cl)nc(N)n2)cc1 [Example 445, 6-(2,3-dichlorophenyl)-4-N-[2-(4-methanesulfonylphenyl)ethyl]pyrimidine-2,4-diamine] |
| < 200 | COc1ccc(-c2cc(NC3CCC3)nc(N)n2)cc1 [Example 59, 4-N-cyclobutyl-6-(4-methoxyphenyl)pyrimidine-2,4-diamine] |
| < 200 | Cc1cccc(-c2cc(NCCCNS(=O)(=O)c3cn(C)c(C)n3)nc(N)n2)c1C [Example 391, N-(3-{[2-Amino-6-(2,3-dimethylphenyl)pyrimidin-4-yl]amino}propyl)-1,2-dimethyl-1H-imidazole-4-sulfonamide] |
| < 200 | CNc1cc(-c2ccc(OCC3CCNCC3)c(COC)c2)nc(N)n1 [Example 257, 6-[3-(methoxymethyl)-4-(piperidin-4-ylmethoxy)phenyl]-4-N-methylpyrimidine-2,4-diamine hydrochloride] |
| < 200 | CC(=O)Nc1cccc(OCCCNc2cc(-c3cccc(C)c3C)nc(N)n2)c1 [Example 363, N-[3-(3-{[2-Amino-6-(2,3-dimethylphenyl)pyrimidin-4-yl]amino}propoxy)phenyl]acetamide] |

| IC50 [nM] | SMILES |
| --- | --- |
| < 200 | CNc1cc(-c2cccc(NC(=O)C(=O)c3ccccc3)c2)nc(N)n1 [Example 316, N-{3-[2-Amino-6-(methylamino)pyrimidin-4-yl]phenyl}-2-oxo-2-phenylacetamide] |
| < 200 | Cc1cccc(-c2cc(NCCc3ccc(S(=O)(=O)N(C)C)cc3)nc(N)n2)c1C [Example 416, 4-(2-{[2-amino-6-(2,3-dimethylphenyl)pyrimidin-4-yl]amino}ethyl)-N,N-dimethylbenzene-1-sulfonamide] |
| < 200 | Cc1c(F)ccc(-c2cc(NC3CC3)nc(N)n2)c1C [Example 436, 4-N-cyclopropyl-6-(4-fluoro-2,3-dimethylphenyl)pyrimidine-2,4-diamine] |
| < 200 | Cc1cccc(-c2cc(NCCc3ccc(Cl)cc3)nc(N)n2)c1Cl [Example 228, 6-(2-chloro-3-methylphenyl)-4-N-[2-(4-chlorophenyl)ethyl]pyrimidine-2,4-diamine] |
| < 200 | CCNc1cc(-c2cccc(Cl)c2C)nc(N)n1 [Example 245, 6-(3-chloro-2-methylphenyl)-4-N-ethylpyrimidine-2,4-diamine] |
| < 200 | Cc1cccc(-c2cc(NCCNc3cccnc3)nc(N)n2)c1C [Example 454, 6-(2,3-dimethylphenyl)-4-N-{2-[(pyridin-3-yl)amino]ethyl}pyrimidine-2,4-diamine] |
| < 200 | Cc1cccc(-c2cc(NCCc3ccc(S(C)(=O)=O)cc3)nc(N)n2)c1C [Example 331, 6-(2,3-Dimethylphenyl)-4-N-[2-(4-methanesulfonylphenyl)ethyl]pyrimidine-2,4-diamine] |
| < 200 | Cc1c(Cl)cccc1-c1cc(NC(C)C)nc(N)n1 [Example 246, 6-(3-chloro-2-methylphenyl)-4-N-(propan-2-yl)pyrimidine-2,4-diamine] |
| < 200 | CNc1cc(-c2cccc(CO)c2)nc(N)n1 [Example 101, {3-[2-amino-6-(methylamino)pyrimidin-4-yl]phenyl}methanol] |
| < 200 | CNc1cc(-c2ccc(OC(F)(F)F)cc2)nc(N)n1 [Example 81, 4-N-methyl-6-[4-(trifluoromethoxy)phenyl]pyrimidine-2,4-diamine] |
| < 200 | CNc1cc(-c2ccc3c(ccn3S(=O)(=O)c3ccccc3)c2)nc(N)n1 [Example 31, 6-[1-(benzenesulfonyl)-1H-indol-5-yl]-4-N-methylpyrimidine-2,4-diamine] |
| < 200 | Cc1cc(CCCNc2cc(-c3cccc(C)c3C)nc(N)n2)n[nH]1 [Example 276, 6-(2,3-dimethylphenyl)-4-N-[3-(5-methyl-1H-pyrazol-3-yl)propyl]pyrimidine-2,4-diamine] |
| < 200 | Cc1cccc(-c2cc(NCCCc3nc4ccccc4[nH]3)nc(N)n2)c1C [Example 409, 4-N-[3-(1H-1,3-benzodiazol-2-yl)propyl]-6-(2,3-dimethylphenyl)pyrimidine-2,4-diamine] |
| < 200 | [2H]C([2H])([2H])Nc1cc(-c2cccc(C)c2C)nc(N)n1 [Example 420, 6-(2,3-dimethylphenyl)-4-N—(^2H3)methylpyrimidine-2,4-diamine] |
| < 200 | Nc1nc(NC2CC2)cc(-c2ccc(Cl)c(Cl)c2Cl)n1 [Example 418, 4-N-Cyclopropyl-6-(2,3,4-trichlorophenyl)pyrimidine-2,4-diamine] |
| < 200 | CNc1cc(-c2ccc(C(=O)C(F)(F)F)cc2)nc(N)n1 [Example 327, 1-{4-[2-Amino-6-(methylamino)pyrimidin-4-yl]phenyl}-2,2,2-trifluoroethan-1-one] |
| < 200 | Cc1cccc(-c2cc(NCCCNC(=O)c3cccc(Br)c3)nc(N)n2)c1C [Example 367, N-(3-{[2-Amino-6-(2,3-dimethylphenyl)pyrimidin-4-yl]amino}propyl)-3-bromobenzamide] |
